Each compound was assayed against Collagenase 3 (Homo sapiens, UniProt P45452) (assay: MMP13 inhibitors among autofluorescent compounds, dose response, biochemical, fluorescence (AID 769)).

Compound	IC50 [µM]
O=S(=O)(Nc1ccc(-c2nc3cccnc3s2)cc1)c1cccs1	> 39.8
Fc1cccc2sc(Nc3nnc(-c4ccccc4)o3)nc12 [(4-fluoro-1,3-benzothiazol-2-yl)-(5-phenyl-1,3,4-oxadiazol-2-yl)amine]	> 39.8
CCOC(=O)CSc1nc(-c2ccc3c(c2)OCO3)ccc1C#N [2-[[6-(1,3-benzodioxol-5-yl)-3-cyano-2-pyridinyl]thio]acetic acid ethyl ester]	> 39.8
COc1cccc(-c2nnc(Nc3nc4c(F)cccc4s3)o2)c1 [(4-fluoro-1,3-benzothiazol-2-yl)-[5-(3-methoxyphenyl)-1,3,4-oxadiazol-2-yl]amine]	> 39.8

Compounds with a lower IC50, results first:

IC50 [µM]	Compound
0.883	Cc1nn(-c2ccccc2)c2sc(-c3nnc(S)o3)cc12 [MLS000043319]
1.68	Oc1ccc(/N=C/c2ccc(-c3cccs3)s2)cc1 [4-[(5-thiophen-2-yl-2-thiophenyl)methylideneamino]phenol]
3.52	COc1cc(OC)cc(-c2nnc(Nc3nc4c(F)cccc4s3)o2)c1 [5-(3,5-dimethoxyphenyl)-N-(4-fluorobenzo[d]thiazol-2-yl)-1,3,4-oxadiazol-2-amine]
3.97	COc1ccc(-c2ccc(-c3noc(-c4ccccc4C)n3)c(OC)n2)cc1 [3-(2-methoxy-6-(4-methoxyphenyl)pyridin-3-yl)-5-o-tolyl-1,2,4-oxadiazole]
